Experiments:
Test in all cases: relative viability (nuclei count vs DMSO), 5 days (fraction); higher = more cells survive
Gemcitabine + Luminespib = compound: Nc1ccn([C@@H]2O[C@H](CO)[C@@H](O)C2(F)F)c(=O)n1 [Gemcitabine] + CCNC(=O)c1noc(-c2cc(C(C)C)c(O)cc2O)c1-c1ccc(CN2CCOCC2)cc1 [Luminespib] (partner 0.01 µM)
Outline: (§1)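 Relative viability equals treated-well nuclei counts divided by vehicle-well nuclei counts. Counts came from 4× images of lung cancer cell lines grown in 1536-well plates for 5 days after pin-tool dosing on the day after seeding. Dosing used one drug alone or a fixed anchor-drug dose plus five library-drug doses (not always all listed) in √10 steps, and values are medians of duplicate plates.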

Gemcitabine + Bortezomib = compound: Nc1ccn([C@@H]2O[C@H](CO)[C@@H](O)C2(F)F)c(=O)n1 [Gemcitabine] + CC(C)C[C@H](NC(=O)[C@H](Cc1ccccc1)NC(=O)c1cnccn1)B(O)O [Bortezomib] (partner 0.002 µM)
Outline: as §1

Gemcitabine + Dasatinib = compound: Nc1ccn([C@@H]2O[C@H](CO)[C@@H](O)C2(F)F)c(=O)n1 [Gemcitabine] + Cc1nc(Nc2ncc(C(=O)Nc3c(C)cccc3Cl)s2)cc(N2CCN(CCO)CC2)n1 [Dasatinib] (partner 0.075 µM)
Outline: as §1

[1] = compound: Nc1ccn([C@@H]2O[C@H](CO)[C@@H](O)C2(F)F)c(=O)n1 [Gemcitabine] + CC(=O)c1c(C)c2cnc(Nc3ccc(N4CCNCC4)cn3)nc2n(C2CCCC2)c1=O [Palbociclib] (partner 0.5 µM)
Outline: as §1

Cell Line	relative viability (Gemcitabine + Luminespib; first compound 0.001 µM)	relative viability (Gemcitabine + Luminespib; first compound 0.003162 µM)	relative viability (Gemcitabine + Luminespib; first compound 0.01 µM)	relative viability (Gemcitabine + Luminespib; first compound 0.03162 µM)	relative viability (Gemcitabine + Luminespib; first compound 0.1 µM)	relative viability (Gemcitabine + Bortezomib; first compound 0.001 µM)	relative viability (Gemcitabine + Bortezomib; first compound 0.003162 µM)	relative viability (Gemcitabine + Bortezomib; first compound 0.01 µM)	relative viability (Gemcitabine + Bortezomib; first compound 0.03162 µM)	relative viability (Gemcitabine + Bortezomib; first compound 0.1 µM)	relative viability (Gemcitabine + Dasatinib; first compound 0.001 µM)	relative viability (Gemcitabine + Dasatinib; first compound 0.003162 µM)	relative viability (Gemcitabine + Dasatinib; first compound 0.01 µM)	relative viability (Gemcitabine + Dasatinib; first compound 0.03162 µM)	relative viability (Gemcitabine + Dasatinib; first compound 0.1 µM)	relative viability ([1]; first compound 0.001 µM)	relative viability ([1]; first compound 0.003162 µM)	relative viability ([1]; first compound 0.01 µM)	relative viability ([1]; first compound 0.03162 µM)	relative viability ([1]; first compound 0.1 µM)
NCI-H661	0.905	0.934	0.694	0.274	0.209	0.838	0.655	0.491	0.213	0.209	1.07	0.814	0.428	0.176	0.18	0.394	0.409	0.411	0.241	0.237
NCI-H1993	0.61	0.85	0.579	0.508	0.45	1.08	1.15	0.713	0.524	0.446	0.617	0.529	0.446	0.509	0.42	0.656	0.575	0.524	0.443	0.379
NCI-H1437	1.08	1.02	0.645	0.391	0.191	0.532	0.395	0.342	0.127	0.105	0.392	0.274	0.285	0.139	0.107	0.317	0.351	0.331	0.225	0.171
UMC-11	1.18	1.15	0.834	0.829	0.47	0.979	0.693	0.677	0.669	0.158	0.464	0.516	0.415	0.368	0.223	0.295	0.36	0.287	0.284	0.233
201T	1.04	1.03	1.04	0.681	0.278	1.03	1.09	1.12	0.952	0.401	0.551	0.654	0.472	0.32	0.29	0.341	0.363	0.317	0.359	0.323
ChaGo-K-1	0.603	0.474	0.259	0.183	0.186	1	0.424	0.341	0.23	0.303	0.535	0.544	0.205	0.144	0.166	0.99	0.803	0.31	0.186	0.167
NCI-H1650	0.197	0.185	0.177	0.197	0.177	0.189	0.18	0.175	0.147	0.133	0.297	0.241	0.141	0.088	0.115	0.339	0.308	0.261	0.186	0.127
LOU-NH91	0.322	0.322	0.339	0.182	0.24	0.498	0.494	0.423	0.323	0.313	0.545	0.28	0.455	0.244	0.242	0.524	0.522	0.478	0.474	0.412

From the supplement of paper PMC10307832
